The source of these data is ChEMBL document CHEMBL1201862, “PubChem BioAssay data set” (2004).

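Where inhibition never reached the appropriate level, the endpoint shown equals the highest concentration tested. Otherwise, values were interpolated linearly from a five-concentration, 48-hour dose response in 96-well plates. GI50 marks 50% less growth.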 Calls of active or inactive are those of the source. No stated cut-off is given here; in the data, active = GI50 up to about 1.1 µM and inactive = higher.

Some test systems named below: 786-0; ACHN; BT-549; EKVX; HCT-116; HL-60; IGROV-1; M14; MDA-MB-435; MOLT-4; NCI-H226; NCI-H460; NCI-H522; OVCAR-3; SF-268; SK-OV-3; T47D; UACC-257; UACC-62; UO-31.
Common to all, as to assay: NCI-60 cell line screen, 48 h

Turning to `N#CC1(C#N)NC(c2ccccc2)C(C#N)(C#N)NC1c1ccccc1` (stereo not given), the GI50 with 786-0 is > 100 µM (inactive); in the test with ACHN, > 100 µM (inactive); in the test with BT-549 it was > 100 µM (inactive); with EKVX, > 100 µM (inactive); in the test with HCT-116 it was > 100 µM (inactive); with HL-60 it was 41.1 µM (inactive). In addition, the GI50 in the test with IGROV-1, in the test on M14, in the test on MDA-MB-435, with MOLT-4, in the test on NCI-H226 and in the test on NCI-H460 was > 100 µM (inactive) in each case. Also, the GI50 in the test with NCI-H522 was 27.4 µM (inactive); with OVCAR-3, > 100 µM (inactive); with SF-268, > 100 µM (inactive); in the test on SK-OV-3, > 100 µM (inactive); in the test on T47D, > 100 µM (inactive); with UACC-257, > 100 µM (inactive). For the same molecule, the GI50 in the test with UACC-62 and with UO-31 was > 100 µM (inactive) throughout.
Regarding `N=C(N)N/N=C/c1nc2n(c1[N+](=O)[O-])CCS2`, the GI50 with 786-0 was 38.6 µM (inactive); with ACHN, > 100 µM (inactive); with BT-549, 31.6 µM (inactive); in the test on EKVX, 22.9 µM (inactive); in the test with HCT-116, 21.9 µM (inactive); with HL-60, 22.5 µM (inactive). The GI50 is 50.2 µM (inactive) with IGROV-1; 25.2 µM (inactive) with M14; 27.9 µM (inactive) with MDA-MB-435; 22.2 µM (inactive) in the test on MOLT-4; 35.8 µM (inactive) in the test with NCI-H226; 18.1 µM (inactive) in the test with NCI-H460. Moreover, the GI50 was 12.9 µM (inactive) in the test with NCI-H522; 7.35 µM (inactive) with OVCAR-3; 10.6 µM (inactive) with SF-268; 45.3 µM (inactive) with SK-OV-3; 17.3 µM (inactive) in the test on T47D; 17.1 µM (inactive) with UACC-257. Moreover, the GI50 with UACC-62 is 42.8 µM (inactive); with UO-31, > 100 µM (inactive).
As to `CNCCN[C@@H]1c2cc3c(cc2[C@@H](c2cc(OC)c(O)c(OC)c2)[C@H]2C(=O)OC[C@@H]21)OCO3`, the GI50 with 786-0 was 0.144 µM (active); in the test with ACHN, 0.106 µM (active); in the test on BT-549, 0.207 µM (active); with EKVX it was 2.23 µM (inactive); in the test on HCT-116, 0.432 µM (active); in the test on HL-60, < 0.016 µM (active). Further, the GI50 in the test with IGROV-1 is 0.418 µM (active); in the test on M14 it was 0.394 µM (active); in the test with MDA-MB-435, 1.66 µM (inactive); in the test with MOLT-4, 0.0104 µM (active); in the test on NCI-H226, 0.0946 µM (active); with NCI-H460, < 0.01 µM (active). Also, the GI50 is 0.251 µM (active) with NCI-H522; 0.968 µM (active) in the test with OVCAR-3; 0.258 µM (active) in the test with SF-268; 0.264 µM (active) in the test on SK-OV-3; 0.138 µM (active) in the test with T47D; 0.652 µM (active) in the test on UACC-257. Moreover, the GI50 with UACC-62 is 0.132 µM (active); in the test on UO-31 it was 1.32 µM (inactive).
With `Cc1[nH]c2c(C)ccc(C)c2c1CC(=O)O`, the GI50 is 43.9 µM (inactive) in the test on 786-0; 59.4 µM (inactive) in the test on ACHN; 54.6 µM (inactive) in the test with BT-549; 39 µM (inactive) in the test with EKVX; 38.5 µM (inactive) with HCT-116; 5.43 µM (inactive) in the test with HL-60. Moreover, the GI50 with IGROV-1 is 17.6 µM (inactive); with M14, 41 µM (inactive); with MDA-MB-435, 42.3 µM (inactive); in the test with MOLT-4 it was 26.5 µM (inactive); with NCI-H226, 33.7 µM (inactive); with NCI-H460, 31 µM (inactive). The GI50 in the test on NCI-H522 was 24.2 µM (inactive); with OVCAR-3 it was 31.3 µM (inactive); in the test on SF-268 it was 44.2 µM (inactive); with SK-OV-3, > 100 µM (inactive); in the test on T47D it was 41.8 µM (inactive); with UACC-257, 30.5 µM (inactive). Moreover, the GI50 in the test with UACC-62 is 43.1 µM (inactive); in the test with UO-31, 37 µM (inactive).
Take `Cc1ccc(CC2(OCCN(C)C)CCC(C(C)(C)C)CC2)cc1` (stereo not given): the GI50 in the test with 786-0 is 1.99 µM (inactive); in the test on ACHN, 6.87 µM (inactive); in the test with BT-549, 4.61 µM (inactive); in the test with EKVX, 6.14 µM (inactive); in the test with HCT-116, 2.38 µM (inactive); with HL-60, 0.767 µM (active). Besides, the GI50 was 6.5 µM (inactive) with IGROV-1; 1.79 µM (inactive) in the test with M14; 2.37 µM (inactive) in the test with MDA-MB-435; 1.71 µM (inactive) with MOLT-4; 5.78 µM (inactive) with NCI-H226; 1.99 µM (inactive) in the test with NCI-H460. Further, the GI50 in the test with NCI-H522 was 3.53 µM (inactive); in the test on OVCAR-3, 9.68 µM (inactive); with SF-268 it was 11.5 µM (inactive); with SK-OV-3 it was 8.17 µM (inactive); in the test with T47D, 2.87 µM (inactive); with UACC-257, 2.65 µM (inactive). For the same molecule, the GI50 with UACC-62 is 2.15 µM (inactive); with UO-31 it was 3.49 µM (inactive).
With `CC(=O)c1ccccc1NS(=O)(=O)c1ccc2nc(C)n(NS(=O)(=O)c3ccccc3C(C)=O)c(=O)c2c1`, the GI50 with 786-0, in the test with ACHN, in the test on BT-549, with EKVX, with HCT-116 and with HL-60 was > 100 µM (inactive) each time. Besides, the GI50 in the test with IGROV-1, with M14, in the test with MDA-MB-435, in the test on MOLT-4, in the test with NCI-H226 and in the test on NCI-H460 was > 100 µM (inactive) throughout. Moreover, the GI50 with NCI-H522, in the test with OVCAR-3, in the test on SF-268, in the test on SK-OV-3, in the test with T47D and in the test on UACC-257 was > 100 µM (inactive) throughout. The GI50 in the test on UACC-62 is > 100 µM (inactive); in the test with UO-31 it was 37.3 µM (inactive).
As for `CN(C)CCCCN1c2ccccc2Sc2ccc(C(=O)c3ccccc3)cc21`, the GI50 in the test on 786-0 was 1.82 µM (inactive); with ACHN, 2.94 µM (inactive); in the test with BT-549, 6.01 µM (inactive); with EKVX, 6.65 µM (inactive); with HCT-116, 2.18 µM (inactive); in the test on HL-60, 1.85 µM (inactive). Besides, the GI50 with IGROV-1 is 2.9 µM (inactive); with M14 it was 1.67 µM (inactive); in the test with MDA-MB-435, 1.9 µM (inactive); in the test on MOLT-4 it was 2.21 µM (inactive); in the test on NCI-H226 it was 5.96 µM (inactive); in the test with NCI-H460, 2.24 µM (inactive). The GI50 in the test with NCI-H522 is 2.91 µM (inactive); with OVCAR-3 it was 3.98 µM (inactive); with SF-268 it was 5.6 µM (inactive); in the test on SK-OV-3 it was 13 µM (inactive); in the test on T47D, 3.59 µM (inactive); in the test on UACC-257, 1.94 µM (inactive). For the same molecule, the GI50 was 2.37 µM (inactive) with UACC-62 and 2.6 µM (inactive) with UO-31.
